This passage reports IC50 results from ChEMBL document CHEMBL5604062, “ASAP - ZIKV NS2B-NS3 protease fluorescence dose response” (2024).

Values joined by “and” are separate entries in the source; they are usually repeats but may differ in a detail not shown here. Equal entries are not always repeated.

This experiment concerns the target Nonstructural protein 3 (Zika virus, UniProt A0A024AXB9). Put plainly: Functional biochemical assay to identify treatments for viral infectious disease that targets Zika NS2B-NS3 protease. Utilizing a direct enzyme activity measurement method, reading the fluorescence intensity is used to characterize the relative potency of inhibitors as IC50. Further details: species or system PRVABC59.

Nonstructural protein 3, sequence (A0A024AXB9 whole entry): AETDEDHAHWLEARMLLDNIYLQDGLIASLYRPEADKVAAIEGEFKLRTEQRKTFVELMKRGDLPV

Take `Cc1nc(C2CCN(Cc3c[nH]c4ccccc34)CC2)sc1C(=O)O`: the IC50 (usually the concentration that inhibits the measured activity by half) is 99.3 µM.

With `N[C@H]1C[C@H](CNC(=O)[C@@H](NC(=O)OCc2ccccc2)c2ccc(OCc3ccccc3)cc2)C1`, the IC50 is > 99.5 µM. For `NCc1cccc(NC(=O)[C@@H](NC(=O)OCc2ccccc2)c2ccc(Br)cc2)c1` the value was 53.6 µM and 54.4 µM; for `NCc1cccc(NC(=O)[C@H]2Cc3ccccc3N2C(=O)OCc2ccccc2)c1`, > 99.5 µM. The result for `NCc1ccc(C[C@H](NC(=O)c2ccccc2)C(=O)Nc2cccc(CN)c2)cc1` reads > 99.5 µM. With `O=C(O)c1ccc(C2CCN(Cc3c[nH]c4ccccc34)CC2)cc1`, the IC50 is > 99.5 µM. Take `NC[C@H]1C[C@H](NC(=O)[C@@H](NC(=O)OCc2ccccc2)c2ccc(OCc3ccccc3)cc2)C1`: the IC50 is > 99.5 µM. Consider `NC(=O)C1CCN(Cc2c[nH]c3ccccc23)CC1`, for which the IC50 is > 99.5 µM.

The molecule `OCc1cc(C2CCN(Cc3c[nH]c4ccccc34)CC2)no1` returned a 50% inhibitory concentration (IC50) of 54.9 µM. For `N[C@H]1CC[C@H](NC(=O)[C@@H](NC(=O)OCc2ccccc2)c2ccc(OCc3ccccc3)cc2)C1` the value was > 99.5 µM. For `C[C@@H](C(=O)Nc1cccc(CN)c1)c1ccc(OCc2ccccc2)cc1` the value was > 99.5 µM; for `O=C(NC[C@H]1CCOC1)c1cc(Cl)ccc1NS(=O)(=O)c1ccc(Oc2ccccc2Cl)cc1`, > 99.5 µM; for `c1cc(CN2CCC(c3c[nH]c4cccnc34)CC2)c2cn[nH]c2c1`, > 99.5 µM. For `NCc1cccc(NC(=O)[C@@H](NC(=O)OCc2ccccc2)c2ccc(F)c(F)c2)c1` the value was > 99.5 µM; for `O=S(=O)(c1c[nH]c2ccccc12)N1CCC(c2cnc3ccc[nH]c2-3)CC1`, > 99.5 µM. For the molecule `NCc1cccc(NC(=O)[C@@H](NC(=O)OCc2ccccc2)c2ccc(F)cc2)c1`, the IC50 was > 99.5 µM. In the case of `NCc1cccc(NC(=O)C[C@@H](NC(=O)OCc2ccccc2)c2ccc(OCc3ccccc3)cc2)c1`, the IC50 came to 6.93 µM. As to `NCc1cccc(NC(=O)[C@@H](Cc2ccccc2)NC(=O)OCc2ccccc2)c1`, the IC50 is > 99.5 µM. In the case of `COc1ccc(S(=O)(=O)Nc2cc(F)c(Cl)cc2C(=O)NCC(C)C)cc1`, the half-inhibitory concentration (IC50) is > 99.5 µM. `c1ccc2c(CN3CCC(c4c[nH]c5cccnc45)CC3)n[nH]c2c1`: the IC50 was 42.9 µM. As to `O=C(O)c1cc(Cl)ccc1NS(=O)(=O)c1ccc(Oc2ccccc2)cc1`, the IC50 is 70.7 µM. Regarding `C#CCn1ccnc(N2CC[C@H](CO)C2)c1=O`, the 50% inhibitory concentration (IC50) was > 99.5 µM. For the molecule `O[C@@H]1CN(Cc2c[nH]c3ccccc23)CC[C@@H]1c1ccccc1`, the IC50 was 47.4 µM. Molecule `c1cncc(C2CCN(Cc3c[nH]c4ccccc34)CC2)c1` had an IC50 of 32.6 µM. The result for `c1ccc(-c2csc(C3CCN(Cc4c[nH]c5ccccc45)CC3)n2)cc1` reads 22.4 µM; that for `O=S(=O)(c1ccc(Oc2ccccc2Cl)cc1)n1ccc2cc(Cl)ccc21`, > 99.5 µM. For `Cc1cc(C(=O)O)c(NS(=O)(=O)c2ccc(Oc3ccccc3)cc2)cc1F` the value was 68.5 µM; for `c1ccc(C2CCN(Cc3c[nH]c4ccccc34)CC2)nc1`, 34.7 µM. For `Cn1cc(NS(=O)(=O)c2ccc(Oc3ccccc3Cl)cc2)c(C(=O)O)n1` the value was > 99.5 µM; for `CCn1ccnc(-n2cc([C@@H]3NC(=O)NC3=O)c3ccccc32)c1=O`, > 99.5 µM.

For the molecule `N[C@@H]1CC[C@H](NC(=O)[C@@H](NC(=O)OCc2ccccc2)c2ccc(OCc3ccccc3)cc2)C1`, the IC50 was > 99.5 µM. For `CCn1ccc2cc(CN3CCC(c4c[nH]c5cccnc45)CC3)ccc21` the value was > 99.5 µM. For `NCc1cccc(NC(=O)[C@@H](N)c2ccc(OCc3ccccc3)cc2)c1` the value was > 99.5 µM. On to `NCc1cccc(CNC(=O)[C@@H](NC(=O)OCc2ccccc2)c2ccc(OCc3ccccc3)cc2)c1`, for which the IC50 was 19 µM and 11.6 µM. The result for `CCn1ccc(-c2ccc([C@@H](NC(=O)OCc3ccccc3)C(=O)Nc3cccc(CN)c3)cc2)n1` reads > 99.5 µM; that for `c1cnc2c(C3CCN(Cc4c[nH]c5ncccc45)CC3)c[nH]c2c1`, > 99.5 µM; that for `NCc1cccc(NC(=O)[C@@H]2c3ccsc3CCN2C(=O)OCc2ccccc2)c1`, > 99.5 µM. For the molecule `O=C(O)c1cc2c(cc1NS(=O)(=O)c1ccc(Oc3ccccc3Cl)cc1)CCC2`, the half-maximal inhibitory concentration (IC50) is 17.5 µM. `NCc1cccc(NC(=O)[C@@H](NC(=O)OCc2ccccc2)c2ccc(-c3ccccc3F)cc2)c1` displayed an IC50 of 8.51 µM. Against the preceding molecule, the IC50 is about 2.1-fold lower. The result for `c1cnc2c(CN3CCC(c4c[nH]c5cccnc45)CC3)c[nH]c2c1` reads 44.4 µM; that for `COC(=O)c1cc(Cl)ccc1NS(=O)(=O)c1ccc(Oc2ccccc2Cl)cc1`, > 99.5 µM; that for `O=C(O)[C@H]1CCCC[C@@H]1NS(=O)(=O)c1ccc(Oc2ccccc2Cl)cc1`, > 99.5 µM. The result for `O=C(O)[C@@H]1CC2(CC[C@@H]1NS(=O)(=O)c1ccc(Oc3ccccc3Cl)cc1)CC2` reads > 99.5 µM; that for `N[C@H]1CC[C@@H](NC(=O)[C@@H](NC(=O)OCc2ccccc2)c2ccc(OCc3ccccc3)cc2)C1`, > 99.5 µM. Consider `COC(=O)c1cc(Cl)ccc1NS(=O)(=O)c1ccc(Cl)nc1`, for which the IC50 is > 99.5 µM.

On to `COc1cc(N[C@@H](C(=O)N2CCc3ccc(OC(F)(F)F)cc32)c2ccc(Cl)cc2)cc(OCCCC(=O)O)c1`, for which the IC50 amounted to 20.4 µM.

For `NCc1cccc(NC(=O)[C@@H](NC(=O)OCc2ccccc2)c2cccnc2)c1`, the IC50 was > 99.5 µM. In the case of `O=C(O)c1cc(Cl)ccc1NS(=O)(=O)c1ccc(Br)cc1`, the IC50 is > 99.5 µM. Take `O=C(O)[C@@H]1CCCC[C@H]1NS(=O)(=O)c1ccc(Oc2ccccc2Cl)cc1`: the IC50 was > 99.5 µM. For `O=C(N[C@@H]1CCc2cn[nH]c2C1)c1cccc2c1NC(=O)[C@]1(CCCN1)C2` the value was > 99.5 µM; for `NCc1cccc(NC(=O)c2ccc(OCc3ccccc3)cc2)c1`, > 99.5 µM; for `CN(C(=O)[C@@H](NC(=O)OCc1ccccc1)c1ccc(OCc2ccccc2)cc1)c1cccc(CN)c1`, > 99.5 µM. As to `N#CC1(c2ccccc2)CCN(Cc2c[nH]c3ccccc23)CC1`, the IC50 was > 99.5 µM. Take `NC1(c2cccc(NC(=O)[C@@H](NC(=O)OCc3ccccc3)c3ccc(OCc4ccccc4)cc3)c2)CCC1`: the half-inhibitory concentration (IC50) is > 99.5 µM. The result for `O=C(O)c1ccn(C2CCN(Cc3c[nH]c4ccccc34)CC2)n1` reads > 99.5 µM. The result for `O=C(NCc1cnn(CCO)c1)c1cccc2c1NC(=O)[C@]1(CCCN1)C2` reads > 99.5 µM. Regarding `O=C(O)c1cc(NS(=O)(=O)c2ccc(Oc3ccccc3Cl)cc2)ccc1Cl`, the IC50 was > 99.5 µM. As to `CC(C)(C)OC(=O)NCc1cccc(NC(=O)[C@@H](NC(=O)OCc2ccccc2)c2cccc(O)c2)c1`, the IC50 is > 99.5 µM. For `Cc1cc(C=O)c(C)n1-c1cccc(C(=O)N2CCN(C)CC2)c1` the value was > 99.5 µM; for `O=C(O)[C@@H]1CCCC[C@@H]1NS(=O)(=O)c1ccc(Oc2ccccc2Cl)cc1`, > 99.5 µM; for `NCc1ccc(C[C@H](NC(=O)OCc2ccccc2)C(=O)Nc2cccc(CN)c2)cc1`, 33.4 µM. The result for `COc1ccc(S(=O)(=O)Nc2cc(F)c(Cl)cc2C(=O)O)cc1` reads > 99.5 µM; that for `COc1cc(NS(=O)(=O)c2ccc(Oc3ccccc3Cl)cc2)c(C(=O)O)cc1Cl`, 16.3 µM. The result for `Cc1ncc(-c2ccc([C@@H](NC(=O)OCc3ccccc3)C(=O)Nc3cccc(CN)c3)cc2)s1` reads 27.2 µM.
